By IC50 is commonly meant the concentration that gives 50% inhibition.

What all share (type): cell-based
Experiment [1] has as its system A549 (human lung carcinoma) cell line. Kind of experiment: In vitro cytotoxicity against A549 cell line. The following applies: from curves of complex concentration vs percentage viability.
Experiment [2] concerns MCF7 (human breast cancer) cell line. Kind of experiment: In vitro cytotoxicity against MCF7 cell line. The following applies: from curves of complex concentration vs percentage viability.
The subject of experiment [3] is HCT15 (human colon adenocarcinoma) cell line. Kind of experiment: In vitro cytotoxicity against HCT15 cell line. The following applies: from curves of complex concentration vs percentage viability.
In experiment [4] the test system is HeLa (human cervical cancer) cell line. Kind of experiment: In vitro cytotoxicity against HeLa cell line. The following applies: read-out: IC50 values against HeLa cell line (unit inferred).

Turning to `N.N.[Cl][Pt][Cl]` [Cisplatin, cisplatin], the IC50 in experiment [1] is 41.6 µM; in experiment [2], 22.4 µM; in experiment [3], 29.5 µM; in experiment [4] it was 19.4 µM.

The values are drawn from patent publication US20170136031A1, “PLATINUM COMPLEXES AS ANTICANCER AGENTS” (KING FAHD UNIVERSITY OF PETROLEUM AND MINERALS, priority 2014, published 2017).
